Source: PubChem BioAssay AID330 (DTP/NCI, 2004)
Where “and” joins values, the source holds several entries; their conditions need not be identical. Equal entries are not always repeated. Inconclusive results and toxic doses are left out. Rule for the calls: active = survival T/C of 150% or more; inactive = T/C below 125% in these data.

Tested on: P388 leukemia ip, CD2F1 mice, survival T/C
Assay: NCI In Vivo Anticancer Drug Screen. Data for tumor model P388 Leukemia (intraperitoneal) in CD2F1 (CDF1) mice
Conditions: endpoint: median survival time, higher = longer survival
In short: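 Mice carrying the transplanted tumor received test compound or vehicle. Survival was recorded in each group, and the value is the treated-group measurement divided by that of the vehicle-treated control group.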

[1] = dose: 60.0 mg/kg/injection, schedule: Q01DX005 (ip), vehicle: saline with Tween-80
[2] = dose: 120.0 mg/kg/injection, schedule: Q01DX005 (ip), vehicle: saline with Tween-80
[3] = dose: 240.0 mg/kg/injection, schedule: Q01DX005 (ip), vehicle: saline with Tween-80
[4] = dose: 50.0 mg/kg/injection, schedule: Q01DX009 (ip), vehicle: saline with Tween-80
[5] = dose: 50.0 mg/kg/injection, schedule: Q01DX009 (ip), vehicle: Klucel (hydroxypropylcellulose) (HPC)
[6] = dose: 100.0 mg/kg/injection, schedule: Q01DX009 (ip), vehicle: Klucel (hydroxypropylcellulose) (HPC)
[7] = dose: 100.0 mg/kg/injection, schedule: Q01DX009 (ip), vehicle: saline with Tween-80

Measured: T/C

CC(=O)N1C(=O)C2(Nc3cc4ccccc4cc3N2)c2ccccc21
inactive: [1] 94 % of control | [2] 93 % of control | [3] 92 % of control

c1ccc2c(c1)[nH]c1ccncc12
inactive: dose: 25.0 mg/kg/injection, schedule: Q01DX009 (ip), vehicle: saline with Tween-80 95 % of control | [4] 95 % of control

COCC12CCC(OC)C34C5CC6(O)C(OC)C=C(C5C6OC(=O)c5ccccc5)C(C(OC)C13)C4N(C)C2 (configuration not stated)
inactive: dose: 25.0 mg/kg/injection, schedule: Q01DX009 (ip), vehicle: Klucel (hydroxypropylcellulose) (HPC) 100 % of control | [5] 95 % of control | [6] 100 % of control

Cc1coc2c1CC1OC1(C)CCC1OC1(C)C2 (configuration not stated)
inactive: dose: 12.5 mg/kg/injection, schedule: Q01DX005 (ip), vehicle: Klucel + Tween-80 96 % of control | dose: 25.0 mg/kg/injection, schedule: Q01DX005 (ip), vehicle: Klucel + Tween-80 98 % of control | dose: 50.0 mg/kg/injection, schedule: Q01DX005 (ip), vehicle: Klucel + Tween-80 99 % of control | dose: 100.0 mg/kg/injection, schedule: Q01DX005 (ip), vehicle: Klucel + Tween-80 106 % of control

O=C(O)C(=O)O.O=C(O)C(=O)O.O=C(O)C(=O)O.[Ru]
inactive: dose: 12.5 mg/kg/injection, schedule: Q04DX003 (ip), vehicle: water 110 % of control and 87 % of control

CC[C@H]1C[C@H]2CN(CCc3c([nH]c4ccccc34)[C@@](C(=O)OC)(c3cc4c(cc3OC)N(C=O)[C@H]3[C@@](O)(C(=O)OC)[C@H](OC(C)=O)[C@]5(CC)CCCN6CC[C@]43[C@@H]65)C2)C1
inactive: dose: 0.5 mg/kg/injection, schedule: Q01DX001 (ip), vehicle: water 109 % of control | dose: 1.0 mg/kg/injection, schedule: Q01DX001 (ip), vehicle: water 107 % of control | dose: 8.0 mg/kg/injection, schedule: Q01DX001 (ip), vehicle: water 119 % of control

Cc1ccc2nc(-c3ccc(CSC(=N)N)cc3)oc(=O)c2c1
inactive: [4] 93 % of control | [7] 89 % of control

O=C(Nc1ccc(F)cc1)N1c2ccccc2SC12CCCC2
inactive: [4] 91 % of control | [7] 93 % of control | dose: 200.0 mg/kg/injection, schedule: Q01DX009 (ip), vehicle: saline with Tween-80 93 % of control

CN=C(NCCCOC)c1ccc(NC(=O)c2ccc(C(=O)Nc3ccc(C(=NC)NCCCOC)cc3)cc2)cc1
inactive: dose: 5.0 mg/kg/injection, schedule: Q01DX009 (ip), vehicle: saline 118 % of control | dose: 5.0 mg/kg/injection, schedule: Q04DX003 (ip), vehicle: saline 100 % of control | dose: 10.0 mg/kg/injection, schedule: Q01DX009 (ip), vehicle: saline 122 % of control | dose: 10.0 mg/kg/injection, schedule: Q04DX003 (ip), vehicle: saline 100 % of control | dose: 20.0 mg/kg/injection, schedule: Q01DX009 (ip), vehicle: saline 90 % of control | dose: 20.0 mg/kg/injection, schedule: Q04DX003 (ip), vehicle: saline 95 % of control

COC(=O)CCC(=O)Nc1c(C)cccc1C(C)C
inactive: [1] 105 % of control | [2] 99 % of control | [3] 99 % of control

CC1=Nc2ccccc2OC2(C1)C(C1COC(C)(C)O1)OC1OC(C)(C)OC12 (configuration not stated)
inactive: dose: 50.0 mg/kg/injection, schedule: Q01DX005 (ip), vehicle: saline with Tween-80 99 % of control | dose: 100.0 mg/kg/injection, schedule: Q01DX005 (ip), vehicle: saline with Tween-80 95 % of control | dose: 200.0 mg/kg/injection, schedule: Q01DX005 (ip), vehicle: saline with Tween-80 104 % of control

CCOC(=O)C(=O)Nc1ccc2cc(OC)ccc2c1C#N
inactive: dose: 6.25 mg/kg/injection, schedule: Q01DX009 (ip), vehicle: saline 94 % of control | dose: 12.5 mg/kg/injection, schedule: Q01DX009 (ip), vehicle: saline 94 % of control | dose: 25.0 mg/kg/injection, schedule: Q01DX009 (ip), vehicle: saline 91 % of control | dose: 50.0 mg/kg/injection, schedule: Q01DX009 (ip), vehicle: saline 99 % of control | dose: 100.0 mg/kg/injection, schedule: Q01DX009 (ip), vehicle: saline 106 % of control | dose: 200.0 mg/kg/injection, schedule: Q01DX009 (ip), vehicle: saline 106 % of control

COc1ccc(/C(=N\N)C2=NNC3(CCCCC3)NN2)cc1
inactive: [5] 94 % of control | [6] 93 % of control | dose: 200.0 mg/kg/injection, schedule: Q01DX009 (ip), vehicle: Klucel (hydroxypropylcellulose) (HPC) 96 % of control
